Laboratory results as given in PubChem BioAssay (NCI).
Where “and” joins values, the source holds several entries; their conditions need not be identical. Equal entries are not always repeated.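 1) Cells in 96-well plates. 2) Compound, 48 h, 5 concentrations. 3) Linear interpolation between surrounding doses. 4) Unreached endpoint = highest concentration. Here, GI50 denotes the concentration required for 50% inhibition of growth. At the TGI there is no net growth.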

Tests used:
Experiment in all cases: growth of human tumour cells (NCI), 48 h
HL-60(TB) leukemia = test system: HL-60(TB) leukemia
CCRF-CEM leukemia = test system: CCRF-CEM leukemia
OVCAR-3 ovarian = test system: OVCAR-3 ovarian
CAKI-1 renal = test system: CAKI-1 renal
HOP-62 NSCLC = test system: HOP-62 NSCLC
MCF7 breast = test system: MCF7 breast
SR leukemia = test system: SR leukemia
SK-MEL-5 melanoma = test system: SK-MEL-5 melanoma
IGROV1 ovarian = test system: IGROV1 ovarian
SN12C renal = test system: SN12C renal

| SMILES | GI50 (HL-60(TB) leukemia) | TGI (HL-60(TB) leukemia) | GI50 (CCRF-CEM leukemia) | TGI (CCRF-CEM leukemia) | GI50 (OVCAR-3 ovarian) | TGI (OVCAR-3 ovarian) | GI50 (CAKI-1 renal) | TGI (CAKI-1 renal) | GI50 (HOP-62 NSCLC) | TGI (HOP-62 NSCLC) | GI50 (MCF7 breast) | TGI (MCF7 breast) | GI50 (SR leukemia) | TGI (SR leukemia) | GI50 (SK-MEL-5 melanoma) | TGI (SK-MEL-5 melanoma) | GI50 (IGROV1 ovarian) | TGI (IGROV1 ovarian) | GI50 (SN12C renal) | TGI (SN12C renal) |
| --- | --- | --- | --- | --- | --- | --- | --- | --- | --- | --- | --- | --- | --- | --- | --- | --- | --- | --- | --- | --- |
| O=C(C(Br)Br)C(Br)C(Br)c1ccccc1 (stereo unspecified) | 5.82 µM | 25.7 µM | 0.536 µM | 2.66 µM | 2.72 µM | 6.44 µM | 1.78 µM | 3.37 µM | 2.74 µM | 8.1 µM | 3.58 µM | 13.4 µM | 1.61 µM | 3.68 µM | 10.6 µM | 22.7 µM | 3.56 µM | 11.5 µM | 12.7 µM | 33.2 µM |
| O=C1c2ccccc2-c2c1c1ccccc1c(=O)n2CCCN1CCOCC1 | 24.9 µM | > 100 µM | > 38.4 µM | > 100 µM | 25 µM | > 100 µM | 14 µM | 30 µM | 6.22 µM | 18.7 µM | 9.31 µM | > 100 µM | 12.2 µM | > 100 µM | 12.3 µM | > 95 µM | 8.36 µM | > 50.1 µM | 21.3 µM | > 100 µM |
| COc1c(O)ccc2c1CN1CCc3cc4c(cc3C1C2)OCO4 (stereo unspecified) | – | > 100 µM | – | > 100 µM | – | > 83.2 µM | – | > 100 µM | – | > 100 µM | – | > 63.1 µM | – | > 100 µM | – | > 100 µM | – | > 100 µM | – | > 84.4 µM |
| COc1ccc(-c2nc(-c3ccccc3)c(-c3ccccc3)n2C2CC2)cc1OC1CCCC1 | 28.3 µM | 141 µM | 33.3 µM | > 165 µM | 102 µM | > 165 µM | 50.2 µM | > 165 µM | > 165 µM | > 165 µM | 67.6 µM | > 165 µM | 7.92 µM | 59.4 µM | 16.7 µM | 125 µM | 77.8 µM | > 165 µM | 128 µM | > 165 µM |
| S=C(N/N=C/c1ccccn1)Nc1ccccn1 | 0.316 µM | 1.25 µM | 0.358 µM | 17.5 µM | 0.327 µM | 3.14 µM | 1.31 µM | > 100 µM | 1.73 µM | 9.22 µM | 0.472 µM | > 100 µM | 0.52 µM | > 100 µM | 0.874 µM | 11.3 µM | 3.17 µM | > 100 µM | 1.95 µM | > 100 µM |
| O=[N+]([O-])/C=C/c1c[nH]c2ccccc12 | 6.5 µM | 25 µM | 15.8 µM | > 100 µM | 15.4 µM | 33 µM | 16.8 µM | 32.7 µM | 21.4 µM | 36.5 µM | 6.02 µM | 38.4 µM | 2.92 µM | 7.18 µM | 16 µM | 32.1 µM | 13.3 µM | 27.6 µM | 17.8 µM | 37.1 µM |
| COc1ccc(-c2cn[nH]c2-c2cc(OC)c(OC)c(OC)c2)cc1N | < 0.01 µM and 0.0248 µM | < 0.01 µM and 0.0834 µM | < 0.01 µM and 0.0347 µM | > 100 µM | < 0.01 µM and 0.0281 µM | – | < 0.01 µM and 0.0324 µM | > 100 µM | < 0.01 µM and 0.0766 µM | > 100 µM | < 0.01 µM and 0.0266 µM | > 100 µM | < 0.01 µM | > 100 µM | < 0.01 µM and 0.0405 µM | – | < 0.01 µM and 0.0415 µM | > 100 µM | < 0.01 µM and 0.0802 µM | > 100 µM |
| O=C(NOCC1CC1)c1ccc(F)c(F)c1Nc1ccc(I)cc1Cl | 0.19 µM | 8.26 µM | 2.99 µM | 19.1 µM | 2.62 µM | 7.54 µM | 2.75 µM | > 100 µM | 2.04 µM | > 100 µM | 3.11 µM | 19.1 µM | 3.04 µM | 12.1 µM | 1.15 µM | 5.83 µM | 1.05 µM | 5.77 µM | 1.63 µM | > 100 µM |
| CC1=Cc2cc3[n-]c(cc4nc(cc5[n-]c(cc1n2)cc5C)C(C)=C4CCC(=O)O)c(CCC(=O)O)c3C.[Pd+2] | 7.21 µM | 14.2 µM | 5.37 µM | 13.7 µM | 7.51 µM | 27.1 µM | 27 µM | 48.6 µM | 17.7 µM | 34.3 µM | > 100 µM | > 100 µM | 2.82 µM | 9.75 µM | 7.73 µM | 19.6 µM | 14.2 µM | 25.6 µM | 9.17 µM | 17.9 µM |
| COC(=O)Nc1nc2ccccc2c(=O)[nH]1 | – | > 100 µM | – | > 100 µM | – | > 100 µM | – | > 100 µM | – | > 100 µM | – | > 100 µM | – | > 100 µM | – | > 100 µM | – | > 100 µM | – | > 100 µM |
| COc1ccc(-c2nc(-c3cn(C)c4ncccc34)cs2)cc1 | 9.11 µM | > 100 µM | > 100 µM | > 100 µM | 41.6 µM | > 100 µM | 18.2 µM | > 100 µM | > 100 µM | > 100 µM | 12.5 µM | > 100 µM | 9.7 µM | > 100 µM | 16.9 µM | > 100 µM | > 100 µM | > 100 µM | > 100 µM | > 100 µM |
| C[C@]12CCC(=O)C(O)=C1CC[C@@H]1[C@@H]2CC[C@]2(C)C(=O)CC[C@@H]12 | – | > 100 µM | – | > 100 µM | – | > 100 µM | – | > 100 µM | – | > 100 µM | – | > 100 µM | – | > 100 µM | – | > 100 µM | – | > 100 µM | – | > 100 µM |
| CNC(=O)c1cccc(-c2ccc3c(N4CCOC[C@@H]4C)nc(N4CCOC[C@@H]4C)nc3n2)c1 | 0.353 µM and 0.37 µM and 2.91 µM | 25.2 µM and > 10 µM and 64.1 µM | 0.177 µM and 0.217 µM and 0.163 µM | > 100 µM | 0.0597 µM and 0.222 µM and 0.139 µM | – | 0.0693 µM and 0.148 µM and 0.144 µM | 1.83 µM and > 3.36 µM | 0.153 µM and 0.273 µM and 0.17 µM | > 100 µM and > 5.18 µM and 10.2 µM | 0.0295 µM and 0.098 µM and 0.0368 µM | 5.51 µM and > 3.46 µM and 9.7 µM | 0.249 µM and 0.133 µM and 0.104 µM | > 100 µM | 0.109 µM and 0.17 µM and 0.176 µM | 0.718 µM and 0.99 µM and 2.87 µM | 0.0443 µM and 0.0381 µM and 0.0224 µM | – | 0.132 µM and 0.121 µM and 0.129 µM | > 100 µM |
